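Growth conditions: 96-well plates. Treatment: test compound, 48 hours, 5 concentrations. Analysis: linear interpolation between bracketing concentrations; unreached endpoints set to highest concentration. GI50: concentration for 50% inhibition of growth. TGI: total growth inhibition.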
Tests used:
Assay in all cases: NCI-60 cell line screen, 48 h
[1] = system: COLO 205 colon
[2] = system: ACHN renal
[3] = system: A498 renal
[4] = system: SW-620 colon
[5] = system: MDA-MB-435
[6] = system: RPMI-8226 leukemia
[7] = system: OVCAR-8 ovarian
[8] = system: DU-145 prostate
[9] = system: SR leukemia
[10] = system: NCI-H226 lung
[11] = system: TK-10 renal
[12] = system: LOX IMVI melanoma
[13] = system: MCF7 breast
[14] = system: MDA-MB-231 breast
[15] = system: UO-31 renal
[16] = system: SF-539 CNS
[17] = system: IGROV1 ovarian
[18] = system: HCT-116 colon
[19] = system: MDA-MB-468 breast
[20] = system: EKVX NSCLC
[21] = system: 786-0 renal
[22] = system: NCI/ADR-RES ovarian
[23] = system: T-47D breast
[24] = system: NCI-H23 lung
[25] = system: SF-268 CNS
[26] = system: SK-MEL-5 melanoma
[27] = system: CAKI-1 renal
[28] = system: BT-549 breast
[29] = system: OVCAR-4 ovarian
[30] = system: UACC-62 melanoma
[31] = system: U251 CNS
[32] = system: HCC-2998 colon
[33] = system: K-562 leukemia
[34] = system: HS 578T breast
[35] = system: HL-60(TB) leukemia
[36] = system: SK-MEL-2 melanoma
[37] = system: M14 melanoma
[38] = system: UACC-257 melanoma
[39] = system: HOP-62 NSCLC
[40] = system: MALME-3M melanoma
[41] = system: OVCAR-3 ovarian
[42] = system: NCI-H522 lung
[43] = system: SF-295 CNS
[44] = system: SNB-75 CNS
[45] = system: SK-OV-3 ovarian
[46] = system: SN12C renal
[47] = system: PC-3 prostate
[48] = system: SK-MEL-28 melanoma
[49] = system: SNB-19 CNS
[50] = system: RXF 393 renal
[51] = system: HCT-15 colon
[52] = system: CCRF-CEM leukemia
[53] = system: OVCAR-5 ovarian
[54] = system: KM12 colon
[55] = system: HT29 colon
[56] = system: HOP-92 NSCLC
[57] = system: MOLT-4 leukemia
[58] = system: NCI-H460 lung
[59] = system: A549 NSCLC

Work on `CCOc1ccccc1[C@H]1C(C(=O)c2ccc(Cl)cc2)C2(N[C@@H]1c1ccccc1)C(=O)Nc1ccc(Cl)cc12` (some centres undefined) yielded a GI50 [1] of over 18.8 µM, a TGI [1] of over 18.8 µM and a GI50 [2] of 8.05 µM. For the same compound, the TGI [2] was over 18.8 µM, the GI50 [3] was over 18.8 µM and the TGI [3] was over 18.8 µM. It also gave a GI50 [4] of 13.4 µM, a TGI [4] of over 18.8 µM and a GI50 [5] of 13.9 µM. The TGI [5] was over 18.8 µM, the GI50 [6] was 10.6 µM and the TGI [6] was over 18.8 µM. The GI50 [7] was 18.3 µM, the TGI [7] was over 18.8 µM and the GI50 [8] was over 18.8 µM. The TGI [8] was over 18.8 µM, the GI50 [9] was 5.28 µM and the TGI [9] was over 18.8 µM. It also gave a GI50 [10] of over 18.8 µM, a TGI [10] of over 18.8 µM and a GI50 [11] of over 18.8 µM. The TGI [11] was over 18.8 µM, the GI50 [12] was 9.63 µM and the TGI [12] was over 18.8 µM. It also gave a GI50 [13] of 6.01 µM, a TGI [13] of over 18.8 µM and a GI50 [14] of 15 µM. It also gave a TGI [14] of over 18.8 µM, a GI50 [15] of 5.3 µM and a TGI [15] of over 18.8 µM. The GI50 [16] was over 18.8 µM, the TGI [16] was over 18.8 µM and the GI50 [17] was 7.98 µM. It also gave a TGI [17] of over 18.8 µM, a GI50 [18] of 7.48 µM and a TGI [18] of over 18.8 µM. For the same compound, the GI50 [19] was 4.84 µM, the TGI [19] was over 18.8 µM and the GI50 [20] was 18.6 µM. The TGI [20] was over 18.8 µM, the GI50 [21] was over 18.8 µM and the TGI [21] was over 18.8 µM. For the same compound, the GI50 [22] was over 18.8 µM, the TGI [22] was over 18.8 µM and the GI50 [23] was 7.73 µM. The TGI [23] was over 18.8 µM, the GI50 [24] was 17.3 µM and the TGI [24] was over 18.8 µM. It also gave a GI50 [25] of 10.5 µM, a TGI [25] of over 18.8 µM and a GI50 [26] of over 18.8 µM. The TGI [26] was over 18.8 µM, the GI50 [27] was 4.11 µM and the TGI [27] was over 18.8 µM. For the same compound, the GI50 [28] was over 18.8 µM, the TGI [28] was over 18.8 µM and the GI50 [29] was over 18.8 µM. It also gave a TGI [29] of over 18.8 µM, a GI50 [30] of 3.93 µM and a TGI [30] of over 18.8 µM. For the same compound, the GI50 [31] was over 18.8 µM, the TGI [31] was over 18.8 µM and the GI50 [32] was 6.18 µM. It also gave a TGI [32] of over 18.8 µM, a GI50 [33] of 6.2 µM and a TGI [33] of over 18.8 µM. For the same compound, the GI50 [34] was over 18.8 µM, the TGI [34] was over 18.8 µM and the GI50 [35] was 12.8 µM. For the same compound, the TGI [35] was over 18.8 µM, the GI50 [36] was over 18.8 µM and the TGI [36] was over 18.8 µM. It also gave a GI50 [37] of 12.3 µM, a TGI [37] of over 18.8 µM and a GI50 [38] of 8.85 µM. For the same compound, the TGI [38] was over 18.8 µM, the GI50 [39] was over 18.8 µM and the TGI [39] was over 18.8 µM. It also gave a GI50 [40] of over 18.8 µM, a TGI [40] of over 18.8 µM and a GI50 [41] of 7.8 µM. For the same compound, the TGI [41] was over 18.8 µM, the GI50 [42] was 8.03 µM and the TGI [42] was over 18.8 µM. The GI50 [43] was 7.53 µM, the TGI [43] was over 18.8 µM and the GI50 [44] was 2.84 µM. For the same compound, the TGI [44] was over 18.8 µM, the GI50 [45] was over 18.8 µM and the TGI [45] was over 18.8 µM. For the same compound, the GI50 [46] was 13.8 µM, the TGI [46] was over 18.8 µM and the GI50 [47] was 5.51 µM. It also gave a TGI [47] of over 18.8 µM, a GI50 [48] of over 18.8 µM and a TGI [48] of over 18.8 µM. The GI50 [49] was over 18.8 µM, the TGI [49] was over 18.8 µM and the GI50 [50] was 16.2 µM. It also gave a TGI [50] of over 18.8 µM, a GI50 [51] of 13.8 µM and a TGI [51] of over 18.8 µM. The GI50 [52] was 11.4 µM, the TGI [52] was over 18.8 µM and the GI50 [53] was over 18.8 µM. The TGI [53] was over 18.8 µM, the GI50 [54] was 9.75 µM and the TGI [54] was over 18.8 µM. For the same compound, the GI50 [55] was 14.4 µM, the TGI [55] was over 18.8 µM and the GI50 [56] was 13 µM. For the same compound, the TGI [56] was over 18.8 µM, the GI50 [57] was 5.36 µM and the TGI [57] was over 18.8 µM. It also gave a GI50 [58] of 7.56 µM, a TGI [58] of over 18.8 µM and a GI50 [59] of 8.86 µM. The TGI [59] was over 18.8 µM.

With `CCN1CCN(Cc2ccc(C(=O)Nc3cccc(-c4cn(-c5ccc6oc(=O)ccc6c5)nn4)c3)cc2C(F)(F)F)CC1` the GI50 [1] was over 100 µM, the TGI [1] was over 100 µM and the GI50 [2] was 10.9 µM. The TGI [2] was 22.9 µM, the GI50 [3] was 29.1 µM and the TGI [3] was over 100 µM. It also gave a GI50 [4] of 1.71 µM, a TGI [4] of 3.41 µM and a GI50 [5] of 1.76 µM. It also gave a TGI [5] of 3.6 µM, a GI50 [6] of 2.62 µM and a TGI [6] of 12.2 µM. For the same compound, the GI50 [7] was 7.71 µM, the TGI [7] was 20.3 µM and the GI50 [8] was 15.8 µM. For the same compound, the TGI [8] was 29.2 µM, the GI50 [9] was 6.47 µM and the TGI [9] was 52.6 µM. For the same compound, the GI50 [10] was 13.6 µM, the TGI [10] was 27 µM and the GI50 [11] was 19.9 µM. The TGI [11] was 34.1 µM, the GI50 [12] was 1.69 µM and the TGI [12] was 3.06 µM. For the same compound, the GI50 [13] was 1.68 µM, the TGI [13] was 3.2 µM and the GI50 [14] was 1.78 µM. It also gave a TGI [14] of 3.2 µM, a GI50 [15] of 10.6 µM and a TGI [15] of 22.4 µM. The GI50 [16] was 12.2 µM, the TGI [16] was 24.6 µM and the GI50 [17] was 10.5 µM. It also gave a TGI [17] of 22.3 µM, a GI50 [18] of 1.82 µM and a TGI [18] of 3.68 µM. It also gave a GI50 [19] of 12.3 µM, a TGI [19] of 27.4 µM and a GI50 [20] of 3.81 µM. The TGI [20] was 14.6 µM, the GI50 [21] was 2.05 µM and the TGI [21] was 4.05 µM. The GI50 [22] was 1.82 µM, the TGI [22] was 3.54 µM and the GI50 [23] was over 100 µM. The TGI [23] was over 100 µM, the GI50 [24] was 1.79 µM and the TGI [24] was 3.56 µM. For the same compound, the GI50 [25] was 18.1 µM, the TGI [25] was 45.6 µM and the GI50 [26] was 5.5 µM. For the same compound, the TGI [26] was 18 µM, the GI50 [27] was 16.5 µM and the TGI [27] was 39.7 µM. The GI50 [28] was over 100 µM, the TGI [28] was over 100 µM and the GI50 [29] was 13.9 µM. The TGI [29] was 27.6 µM, the GI50 [30] was 12.3 µM and the TGI [30] was 24.7 µM. The GI50 [31] was 1.91 µM, the TGI [31] was 4.03 µM and the GI50 [32] was 2.52 µM. The TGI [32] was 5.47 µM, the GI50 [33] was 2.34 µM and the TGI [33] was 7.26 µM. The GI50 [34] was 18.2 µM, the TGI [34] was 67 µM and the GI50 [35] was 30.1 µM. For the same compound, the TGI [35] was over 100 µM, the GI50 [36] was 58.3 µM and the TGI [36] was over 100 µM. For the same compound, the GI50 [37] was 2.46 µM, the TGI [37] was 6.86 µM and the GI50 [38] was 19.2 µM. For the same compound, the TGI [38] was 43.3 µM, the GI50 [39] was 16.4 µM and the TGI [39] was 31.4 µM. For the same compound, the GI50 [40] was 1.6 µM, the TGI [40] was 3 µM and the GI50 [41] was 16.5 µM. It also gave a TGI [41] of 30 µM, a GI50 [42] of 17.2 µM and a TGI [42] of 30.9 µM. It also gave a GI50 [43] of 14.8 µM, a TGI [43] of 28 µM and a GI50 [44] of 12.2 µM. For the same compound, the TGI [44] was 24.6 µM, the GI50 [45] was 21.7 µM and the TGI [45] was 79.4 µM. The GI50 [46] was 14.3 µM, the TGI [46] was 27.4 µM and the GI50 [48] was 1.81 µM. It also gave a TGI [48] of 3.29 µM, a GI50 [49] of 17.3 µM and a TGI [49] of 31.1 µM. For the same compound, the GI50 [50] was 1.77 µM, the TGI [50] was 3.47 µM and the GI50 [51] was 1.78 µM. The TGI [51] was 3.45 µM, the GI50 [52] was 2.23 µM and the TGI [52] was 8.3 µM. For the same compound, the GI50 [53] was 16.2 µM, the TGI [53] was 29.7 µM and the GI50 [54] was 5.37 µM. It also gave a TGI [54] of 17.6 µM, a GI50 [55] of 1.77 µM and a TGI [55] of 3.72 µM. It also gave a GI50 [56] of 11.1 µM, a TGI [56] of 39.8 µM and a GI50 [57] of 2.88 µM. For the same compound, the TGI [57] was 12.9 µM, the GI50 [58] was 3.61 µM and the TGI [58] was 12.6 µM. It also gave a GI50 [59] of 1.79 µM and a TGI [59] of 3.64 µM.

Source: PubChem BioAssay (NCI)
